Experimental findings from patent US12570666B2, “Furoindazole derivatives” (Bayer Aktiengesellschaft, priority 2019, dated 2026) are described below.

T1 sequence (Q9NQS5 whole entry): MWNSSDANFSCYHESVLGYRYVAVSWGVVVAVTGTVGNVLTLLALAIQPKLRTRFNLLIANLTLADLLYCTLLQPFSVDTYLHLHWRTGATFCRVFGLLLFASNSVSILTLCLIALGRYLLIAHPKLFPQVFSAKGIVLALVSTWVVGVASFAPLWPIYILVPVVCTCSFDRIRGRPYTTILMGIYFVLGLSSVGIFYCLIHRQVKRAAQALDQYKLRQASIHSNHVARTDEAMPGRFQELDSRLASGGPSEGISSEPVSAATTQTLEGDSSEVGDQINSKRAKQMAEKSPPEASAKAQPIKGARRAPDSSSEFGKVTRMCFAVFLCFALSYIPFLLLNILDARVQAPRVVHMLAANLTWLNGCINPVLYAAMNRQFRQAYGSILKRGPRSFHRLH

This assay addresses T1, human GPR84 receptor (Homo sapiens, UniProt Q9NQS5).
T1 construct: frozen aliquots prepared by acCELLerate; host or cells: CHO-K1
The assay can be described thus: cAMP HTRF assay for identification of cellular GPR84 antagonists. In kind it is cell-based. Particulars: CHO-K1 cells stably expressing human GPR84; Forskolin + agonist 6-OAU (EC80); average or median values. The essentials:
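Forskolin-stimulated CHO-K1 cells stably expressing human GPR84, agonist-suppressed cAMP measured by HTRF (665/620 ratio) after lysis. Compounds at 11 concentrations, 20 μM to 0.07 nM, duplicate; normalized to DMSO and no-agonist controls; IC50 by 4-parameter fit.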
In general, IC50 refers to the concentration that gives 50% inhibition. On to `CC(=O)N1CC(Cn2cc3c(n2)-c2c(oc(C(=O)NC[C@@H]4CCCO4)c2C)CC3)C1` [Example 164, 2-[(1-acetylazetidin-3-yl)methyl]-8-methyl-N-[(2S)-tetrahydrofuran-2-ylmethyl]-4,5-dihydro-2H-furo[2,3-g]indazole-7-carboxamide], for which the IC50 amounted to 980 nM. Under `CC(=O)N1CC(F)(Cn2cc3c(n2)-c2c(oc(C(=O)NC[C@@H]4CCCO4)c2C)CC3)C1` [Example 165, 2-[(1-acetyl-3-fluoroazetidin-3-yl)methyl]-8-methyl-N-[(2S)-tetrahydrofuran-2-ylmethyl]-4,5-dihydro-2H-furo[2,3-g]indazole-7-carboxamide] stands 110 nM; under `Cc1c(C(=O)NC[C@@H]2CCCO2)oc2c1-c1nn(CC3(F)CN(S(C)(=O)=O)C3)cc1CC2` [Example 166, 2-{[3-fluoro-1-(methylsulfonyl)azetidin-3-yl]methyl}-8-methyl-N-[(2S)-tetrahydrofuran-2-ylmethyl]-4,5-dihydro-2H-furo[2,3-g]indazole-7-carboxamide], 110 nM. For the molecule `COC(=O)N1CC(F)(Cn2cc3c(n2)-c2c(oc(C(=O)NC[C@@H]4CCCO4)c2C)CC3)C1` [Example 167, methyl 3-fluoro-3-[(8-methyl-7-{[(2S)-tetrahydrofuran-2-ylmethyl]carbamoyl}-4,5-dihydro-2H-furo[2,3-g]indazol-2-yl)methyl]azetidine-1-carboxylate], the IC50 is 60 nM. `O=C(NC[C@@H]1CCCO1)c1oc2c(c1C(F)(F)F)-c1nn(C[C@H]3COCCO3)cc1C1(CC1)C2` [Example 168, 2′-[(2S)-1,4-dioxan-2-ylmethyl]-N-[(2S)-tetrahydrofuran-2-ylmethyl]-8′-(trifluoromethyl)-2′,5′-dihydrospiro[cyclopropane-1,4′-furo[2,3-g]indazole]-7′-carboxamide]: the IC50 worked out at 10 nM. Consider `O=C(NC[C@@H]1COCCO1)c1oc2c(c1C(F)(F)F)-c1nn(C[C@H]3COCCO3)cc1C1(CC1)C2` [Example 169, N-{[(2R)-1,4-dioxan-2-yl]methyl}-2′-{[(2S)-1,4-dioxan-2-yl]methyl}-8′-(trifluoromethyl)-2′,5′-dihydrospiro[cyclopropane-1,4′-furo[2,3-g]indazole]-7′-carboxamide], for which the 50% inhibitory concentration (IC50) is 13 nM. Take `Cc1c(C(=O)NCC2CCOCC2)oc2c1-c1nn(Cc3ccccn3)cc1CC2` [Example 171]: the 50% inhibitory concentration (IC50) is 3690 nM. In the case of `Cc1c(C(=O)NC[C@@H]2CCCO2)oc2c1-c1nn(Cc3cc(F)ccn3)cc1CC2` [Example 182], the IC50 was determined as 168 nM. Consider `Cc1c(C(=O)NC[C@@H]2CCCO2)oc2c1-c1nn(Cc3cccnn3)cc1CC2` [Example 184], for which the IC50 was determined as 447 nM. For `Cc1c(C(=O)NC[C@@H]2COCCO2)oc2c1-c1nn(Cc3cccnn3)cc1CC2` [Example 185], the IC50 was determined as 551 nM. In the case of `CCc1ccc(Cn2cc3c(n2)-c2c(oc(C(=O)NC[C@@H]4CCCO4)c2C)CC3)cn1` [Example 186], the IC50 is 63 nM. Under `CCc1ccc(Cn2cc3c(n2)-c2c(oc(C(=O)NC[C@@H]4COCCO4)c2C)CC3)cn1` [Example 187] stands 40 nM. Take `Cc1c(C(=O)NC[C@@H]2CCCO2)oc2c1-c1nn(Cc3ncco3)cc1CC2` [Example 188]: the IC50 is 223 nM.

On to `Cc1c(C(=O)NC[C@@H]2CCCO2)oc2c1-c1nn(CC3CCOCC3)cc1CC2` [Example 189], for which the IC50 was 109 nM. On to `Cc1ccc(Cn2cc3c(n2)-c2c(oc(C(=O)NC[C@@H]4COCCO4)c2C(F)(F)F)CC3)cn1` [Example 191], for which the IC50 came to 8 nM. For the molecule `Cc1ccc(Cn2cc3c(n2)-c2c(oc(C(=O)NC[C@@H]4CCCO4)c2C(F)(F)F)CC3)cn1` [Example 192], the IC50 was determined as 6 nM. With `O=C(NC[C@@H]1COCCO1)c1oc2c(c1C1CC1)-c1nn(C[C@H]3COCCO3)cc1CC2` [Example 193], the IC50 came to 32 nM. On to `O=C(NC[C@@H]1CCCO1)c1oc2c(c1C1CC1)-c1nn(C[C@H]3COCCO3)cc1CC2` [Example 194], for which the IC50 was found to be 30 nM. As to `Cc1c(C(=O)NC[C@@H]2CCCO2)oc2c1-c1nn(Cc3ccncc3)cc1C1(CCC1)C2` [Example 202], the IC50 amounted to 77 nM. Consider `Cc1ccc(Cn2cc3c(n2)-c2c(oc(C(=O)NC[C@@H]4CCCO4)c2C)CC32CCC2)nc1` [Example 203], for which the IC50 was 22 nM. To `Cc1ccc(Cn2cc3c(n2)-c2c(oc(C(=O)NC[C@@H]4COCCO4)c2C)CC32CC2)cn1` [Example 210] belongs 16 nM. Consider `Cc1ccc(Cn2cc3c(n2)-c2c(oc(C(=O)NC[C@@H]4CCCO4)c2C)CC32CC2)cn1` [Example 211], for which the IC50 turned out to be 17 nM.

For `Cc1ccc(Cn2cc3c(n2)-c2c(oc(C(=O)NC[C@@H]4COCCO4)c2C(F)(F)F)CC32CC2)cn1` [Example 212, N-{[(2R)-1,4-dioxan-2-yl]methyl}-2′-[(6-methylpyridin-3-yl)methyl]-8′-(trifluoromethyl)-2′,5′-dihydrospiro[cyclopropane-1,4′-furo[2,3-g]indazole]-7′-carboxamide], the IC50 was 4 nM. To `Cc1ccc(Cn2cc3c(n2)-c2c(oc(C(=O)NC[C@@H]4CCCO4)c2C(F)(F)F)CC32CC2)cn1` [Example 213, 2′-[(6-methylpyridin-3-yl)methyl]-N-{[(2S)-oxolan-2-yl]methyl}-8′-(trifluoromethyl)-2′,5′-dihydrospiro[cyclopropane-1,4′-furo[2,3-g]indazole]-7′-carboxamide] belongs 7 nM.

In the case of `Cc1ccc(Cn2cc3c(n2)-c2c(oc(C(=O)NC[C@@H]4CCCO4)c2C(F)(F)F)CC32CC2)nc1` [Example 214, 2′-[(5-methylpyridin-2-yl)methyl]-N-{[(2S)-oxolan-2-yl]methyl}-8′-(trifluoromethyl)-2′,5′-dihydrospiro[cyclopropane-1,4′-furo[2,3-g]indazole]-7′-carboxamide], the 50% inhibitory concentration (IC50) turned out to be 5 nM. Under `Cc1ccc(Cn2cc3c(n2)-c2c(oc(C(=O)NC[C@@H]4COCCO4)c2C(F)(F)F)CC32CC2)nc1` [Example 215, N-{[(2R)-1,4-dioxan-2-yl]methyl}-2′-[(5-methylpyridin-2-yl)methyl]-8′-(trifluoromethyl)-2′,5′-dihydrospiro[cyclopropane-1,4′-furo[2,3-g]indazole]-7′-carboxamide] stands 3 nM; under `O=C(NC[C@@H]1COCCO1)c1oc2c(c1C(F)(F)F)-c1nn(Cc3ccncc3)cc1C1(CC1)C2` [Example 216, N-[(2R)-1,4-Dioxan-2-ylmethyl]-2′-(pyridin-4-ylmethyl)-8′-(trifluormethyl)-2′,5′-dihydrospiro[cyclopropan-1,4′-furo[2,3-g]indazol]-7′-carboxamide], 6 nM; under `O=C(NC[C@@H]1CCCO1)c1oc2c(c1C(F)(F)F)-c1nn(Cc3ccncc3)cc1C1(CC1)C2` [Example 217, 2′-(Pyridin-4-ylmethyl)-N-[(2S)-tetrahydrofuran-2-ylmethyl]-8′-(trifluormethyl)-2′,5′-dihydrospiro[cyclopropan-1,4′-furo[2,3-g]indazol]-7′-carboxamide], 6 nM. For the molecule `O=C(NC[C@@H]1CCCO1)c1oc2c(c1C(F)(F)F)-c1nn(Cc3ccccn3)cc1C1(CC1)C2` [Example 218, N-{[(2S)-oxolan-2-yl]methyl}-2′-[(pyridin-2-yl)methyl]-8′-(trifluoromethyl)-2′,5′-dihydrospiro[cyclopropane-1,4′-furo[2,3-g]indazole]-7′-carboxamide], the IC50 worked out at 9 nM. For the molecule `O=C(NC[C@@H]1COCCO1)c1oc2c(c1C(F)(F)F)-c1nn(Cc3ccccn3)cc1C1(CC1)C2` [Example 219, N-[(2R)-1,4-Dioxan-2-ylmethyl]-2′-(pyridin-2-ylmethyl)-8′-(trifluormethyl)-2′,5′-dihydrospiro[cyclopropan-1,4′-furo[2,3-g]indazol]-7′-carboxamide], the IC50 worked out at 7 nM.

As for `O=C(NC[C@@H]1COCCO1)c1oc2c(c1C(F)(F)F)-c1nn(C[C@@H]3COCCO3)cc1CC2` [Example 220, N,2-bis{[(2R)-1,4-dioxan-2-yl]methyl}-8-(trifluoromethyl)-4,5-dihydro-2H-furo[2,3-g]indazole-7-carboxamide], the IC50 worked out at 18 nM. Consider `O=C(NC[C@@H]1CCCO1)c1oc2c(c1C(F)(F)F)-c1nn(C[C@H]3COCCO3)cc1CC2` [Example 221, 2-{[(2S)-1,4-dioxan-2-yl]methyl}-N-{[(2S)-oxolan-2-yl]methyl}-8-(trifluoromethyl)-4,5-dihydro-2H-furo[2,3-g]indazole-7-carboxamide], for which the IC50 is 8 nM. Consider `O=C(NCc1nccs1)c1oc2c(c1C(F)(F)F)-c1nn(C[C@H]3COCCO3)cc1CC2` [Example 226, 2-[(2S)-1,4-Dioxan-2-ylmethyl]-N-(1,3-thiazol-2-ylmethyl)-8-(trifluormethyl)-4,5-dihydro-2H-furo[2,3-g]indazol-7-carboxamide], for which the IC50 was determined as 16 nM. Consider `Cc1cnc(CNC(=O)c2oc3c(c2C(F)(F)F)-c2nn(C[C@H]4COCCO4)cc2CC3)cn1` [Example 227, 2-[(2S)-1,4-Dioxan-2-ylmethyl]-N-[(5-methylpyrazin-2-yl)methyl]-8-(trifluormethyl)-4,5-dihydro-2H-furo[2,3-g]indazol-7-carboxamide], for which the IC50 was 24 nM. To `O=C(NCc1cnccn1)c1oc2c(c1C(F)(F)F)-c1nn(C[C@H]3COCCO3)cc1CC2` [Example 228, 2-[(2S)-1,4-Dioxan-2-ylmethyl]-N-(pyrazin-2-ylmethyl)-8-(trifluormethyl)-4,5-dihydro-2H-furo[2,3-g]indazol-7-carboxamide] belongs 38 nM.

Take `Cn1cnc(CNC(=O)c2oc3c(c2C(F)(F)F)-c2nn(C[C@H]4COCCO4)cc2CC3)c1` [Example 229, 2-[(2S)-1,4-Dioxan-2-ylmethyl]-N-[(1-methyl-1H-imidazol-4-yl)methyl]-8-(trifluormethyl)-4,5-dihydro-2H-furo[2,3-g]indazol-7-carboxamide]: the half-inhibitory concentration (IC50) worked out at 89 nM.
